Measurements published in article PMC9177545, “3-oxo-C12:2-HSL, quorum sensing molecule from human intestinal microbiota, inhibits pro-inflammatory pathways in immune cells via bitter taste receptors” (Scientific Reports, 2022).

Legend:
[1] = test system: RAW264.7 macrophages; assay: Cytokine mRNA levels by RT-qPCR in RAW264.7 macrophages stimulated with LPS and IFNγ; assay type: cell-based, murine; conditions: 50 µM, 2 h, vs control
Procedure: RAW264.7 murine macrophage cells (ATCC, Manassas, Virginia, USA) were cultured between passage 12 and 25 in Dulbecco’s modified Eagle’s medium supplemented with 10% heat-inactivated fetal calf serum and 1% L-glutamine (ThermoFisher Scientific). The macrophages were seeded at 35,000 cells per well in 12-well plates (Falcon) for ELISA experiments or 110,000 cells per well in 6-well plates (Falcon) for cell lysates, upon reaching 80–90% confluence after 3-day culture. Cells were maintained at 37 °C with 5% CO2/air atmosphere and the media were changed every other day.
(§1) Cells were exposed to 3-oxo-C12:2-HSL (synthesized as previously described[17]) or DMSO 0.1% as a control for different durations depending on the experiment, in the presence of the lactonase inhibitor 2-hydroxyquinoline (100 µM, Sigma-Aldrich), in order to limit the hydrolysis of the AHL lactone ring, as described previously[17],[18].
(§2) In RAW264.7 cells, inflammation was triggered with LPS (10 ng/mL, Sigma) and IFNγ (10 U/mL, R&Dsystems) for 2 h or 6 h, depending on the experiments. PBMC were exposed to LPS (10 ng/mL) and AHL for 24 h. For TAS2R38 inhibition experiments, cells were exposed to TAS2R38 allosteric inhibitor probenecid (1 mM, Sigma) for one hour before adding AHLs and the inflammatory cocktail, without changing the media.
Total RNA was extracted from RAW264.7 cells using TRIzol (Invitrogen) according to the manufacturer's instructions. Reverse Transcription (RT) was performed with 1 μg RNA using LunaScript® RT SuperMix Kit (NewEngland Biolabs). Semi-quantitative real-time PCR was performed with the Mx3000P Stratagene system using SYBR Green (Applied Biosystems) according to the manufacturer's procedures. Cyclophilin was used as the reference gene. After amplification, Ct were determined.

[2] = test system: PBMC; assay: TNFα secretion by ELISA in PBMC stimulated with LPS; assay type: cell-based, human; conditions: LPS 10 ng/mL, 24 h, dose-dependent between 25 to 100 µM
Procedure: Peripheral Blood Mononuclear Cells (PBMC) were extracted from whole blood of anonymous donors and collected by Etablissement Français du Sang of Paris, France.
PBMC were cultured in Roswell Park Memorial Institute medium (ThermoFisher Scientific) with 10% heat-inactivated fetal calf serum, 1% L-glutamine, 1% non-essential amino acids, 1% sodium pyruvate, penicillin (100 IU/mL), and streptomycin (100 µg/mL). Peripheral blood was harvested in EDTA tubes, blood was diluted with PBS 1:1, layered over Histopaque-1077® (Sigma) and centrifuged for 20 min at 400g at room temperature. Extracted PBMC were washed twice with sterile PBS then centrifuged at 300g for 5 min and resuspended in complete medium. For experiments, cells were seeded at 300,000 cells per well in 200 µL of medium in 96-well plates (ThermoFisher Scientific).
as §1, with “previously[17],[18]. […]” for “previously[17],[18].”
At the end of cell treatment, the medium was centrifuged at 300g for 5 min at 4 °C. […] Absorbance was measured by a spectrometer (FLUOstar Omega; BMG Labtech) at 450 nm and the absorbance at 540 nm was subtracted.

[3] = test system: RAW264.7 cells and PBMC; assay: Cytotoxicity by lactate dehydrogenase release; assay type: cell-based; conditions: doses of AHL used in all experiments
Procedure: Release of lactate dehydrogenase into the medium was measured to assess cellular toxicity. LDH concentration was measured using the Cytotoxicity Detection Kit (Roche, Boulogne-Billancourt, France) according to the manufacturer’s instructions. The media were centrifuged 5 min at 250g to remove any cells. 50 µL of reaction mixture was added to 50 µL of media supernatant in 96-well plates. After 10 min at room temperature, 25 µL of stop solution was added. Absorbance at 490 nm was determined with a microplate spectrometer (FLUOstar Omega; BMG Labtech). Results are expressed as absorbance arbitrary units.

[4] = test system: JAK2; assay: JAK2 phosphorylation by Wes capillary electrophoresis in activated RAW264.7 macrophages; assay type: cell-based, murine; conditions: 50 µM, 2 h, LPS and IFNγ stimulated
Procedure: as §2
RAW264.7 cells were scraped in lysis buffer (20 mM Tris- HCl, pH 7.4, 5 mM EDTA, 0.15 M NaCl, 1% Triton X-100, 0.5% sodium deoxycholate) supplemented with protease inhibitor cocktail (Complete Mini; Roche, Boulogne-Billancourt, France) and phosphatase inhibitor cocktail (PhosSTOP, Sigma-Aldrich). Protein concentrations were determined using the BC Assay (Uptima/Interchim). Wes™ analyses (capillary electrophoresis system; ProteinSimple, San Jose, CA) were performed according to the manufacturer’s recommendations, and adequate protein concentrations and antibody dilutions were determined in preliminary assays to allow optimal quantitative conditions. […] Data were analysed using Compass for SW3.1 software (ProteinSimple).

[5] = target: T1, TAS2R138 (Mus musculus, UniProt Q7TQA6); assay: TAS2R38/TAS2R138 inhibition experiment: TNFα secretion of RAW264.7 cells pre-treated with probenecid; assay type: cell-based; conditions: pre-treated with 1 mM probenecid one hour, then LPS, IFNγ and AHL six hours
T1 construct: endogenous in cells; host or cells: RAW264.7 murine macrophages (ATCC)
T1 sequence (Q7TQA6 1-331): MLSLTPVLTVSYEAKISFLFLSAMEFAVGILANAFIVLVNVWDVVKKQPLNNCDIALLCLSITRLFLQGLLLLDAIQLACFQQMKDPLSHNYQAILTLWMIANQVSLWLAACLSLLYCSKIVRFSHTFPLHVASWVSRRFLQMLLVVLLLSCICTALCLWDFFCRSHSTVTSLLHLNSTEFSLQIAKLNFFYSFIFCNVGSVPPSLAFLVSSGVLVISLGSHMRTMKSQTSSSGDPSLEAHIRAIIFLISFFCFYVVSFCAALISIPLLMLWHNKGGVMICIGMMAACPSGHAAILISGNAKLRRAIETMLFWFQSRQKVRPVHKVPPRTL
Procedure: as §2
At the end of cell treatment, the medium was centrifuged at 300g for 5 min at 4 °C. Supernatant was frozen at − 80 °C until ELISA assays. TNFα and IL-1β ELISA kits were purchased from R&D systems and performed according to the manufacturer’s instructions. Briefly, plates were coated with a capture antibody and incubated overnight. Wells were blocked using 1% bovine serum albumin-PBS solution (Sigma), then exposed to cell supernatants at room temperature for two hours. Wells were washed and incubated with the detection antibody for an additional two hours. After thorough washing, Streptavidin-HRP solution was added for 20 min. Wells were washed, then incubated with TMB (Biolegend) solution for 20 min and the reaction was stopped using 1 M H2SO4. Absorbance was measured by a spectrometer (FLUOstar Omega; BMG Labtech) at 450 nm and the absorbance at 540 nm was subtracted.

[6] = test system: Caco-2/TC7; parameters: method as in PMID 30157234; conditions: Caco-2/TC7 stimulated by IL-1β ref 17; cited from earlier work

- anti-inflammatory effect (TNFα secretion) when TAS2R138 is inhibited [5]: abolished
Substance: 3-oxo-C12:2-HSL
- IL-10 expression (Il10 mRNA) [1]: strongly increased
- Il1b mRNA level [1]: reduced
- Tnf mRNA level [1]: reduced
- TNFα secretion [2]: strongly decreased
- cytotoxicity, lactate dehydrogenase release compared to the control [3]: no significant difference
- phosphorylation level of JAK2 vs activated cells without AHL [4]: not significantly altered
- IL-8 production [6]: decreased
